Reference: US9452997B2, “Piperidine and piperazine derivatives as autotaxin inhibitors” (Merck Patent GmbH, priority 2009, dated 2016)

target: T1, Recombinant autotaxin (Homo sapiens, UniProt Q13822); test: Autotaxin assay (Amplex Red, LPC substrate); type: biochemical; conditions: recombinant autotaxin, LPC substrate, Amplex Red detection; values given as upper bounds
T1 construct: made in house; host or cells: Hi5 insect cells (baculovirus)
Procedure: Autotaxin activity is measured indirectly by means of Amplex Red Reagent. In this course, Amplex Red is measured as fluorogenic indicator for generated H2O2. Autotaxin converts substrate lysophosphatidylcholine (LPC) to phosphocholine and lysophosphatidylic acid (LPA). After the conversion phosphocholine is reacted with alkaline phosphatase to obtain inorganic phosphate and choline. During the next step choline is oxidized with choline oxidase to yield betaine, whereby H2O2 is generated. H2O2 reacts with Amplex Red Reagent in the presence of peroxidase (Horseradish peroxidase) in an 1:1 stochiometry and yields highly fluorescent resorufin. The generated fluorescence is measured in a reaction-dependent kinetic mode in order to enable subtraction of fluorescence signals of possible other fluorescent compounds that are not part of the reaction from total measured fluorescence.
1.5 μl of a standard solution or of the compounds of the invention are dissolved in 20 mM Hepes pH 7.2 with maximally 7.7% DMSO in individual concentrations. The resulting solution is pre-incubated together with 10 μl (16 ng) of highly purified recombinant autotaxin in a black 384-hole microtiter plate for 30 min at 22° C.
Thereafter, the reaction is started through the addition of 5 μL-a-lysophosphatidyl-choline (LPC), whereby the final concentration of LPC is 75 μM. The mixture is incubated for 90 min. at 37° C. After the incubation Amplex Red Reagent, peroxidase (Horseradish peroxidase) and choline oxidase are added. The fluorescence is immediately measured at a wavelength of 612 nm with an excitation wavelength of 485 nm in a “Tecan Ultra multimode” fluorescence reader. The activity of autotaxin is indirectly calculated via the amount of detected generated H2O2.
For IC50 analysis, ten serial 1:3 dilutions starting at 30 μM for each compound were run in duplicates.
IC50 values were calculated on normalized data. For normalization, control wells were added to each assay plate and the signal of uninhibited control wells was set to 100%, whereas the signal inhibited by 500 μM C14 LPA, (Avanti Polar Lipids, Cat#857120P) was set to 0%. Curves were fitted and IC50 values calculated by the following model using proprietory analysis software: Y=Bottom+(100−Bottom)/(1+10^((Log IC50−X)*HillSlope)) Where X is the logarithm of concentration. Y is the response; Y starts at Bottom and goes to Top with a sigmoid shape. Material
Microtiter plate: PS-Microplate, 384-hole, small volume, black Corning, Cat#3677
Protein: Recombinant autotaxin (baculoviral Hi5 expression)
Substrate: L-a-lysophosphatidyl choline (chicken egg); Avanti Polar Lipids #830071P
Standard: C14 LPA, Avanti Polar Lipids, Cat#857120P
Detection Reagent: Amplex Red Reagent; Invitrogen #A12222; dissolved in 1.923 ml of DMSO peroxidase Type VI-A (horseradish), Sigma #P6782; dissolved in 7.45 ml of test buffer, Choline Oxidase; Sigma #C5896; dissolved in 2.47 ml test buffer
Detection Reagent Mix: 1:100 dilution of Amplex Red Regent in test buffer
Test buffer: 200 mM Tris-HCl, Merck, Cat #1.08219, pH 7.9; 0.1% BSA, lipid free, Roche Cat#775835

| Compound | IC50 |
| --- | --- |
| CS(=O)(=O)Nc1ccc(C(=O)N2CCN(C3CCN(C(=O)CCc4ccc(C(F)(F)F)cc4)CC3)CC2)cc1 [Compound 59, N-[4-(4-{1-[3-(4-Trifluoromethyl-phenyl)-propionyl]-piperidin-4-yl}-piperazine-1-carbonyl)-phenyl]-methanesulfonamide] | < 10 µM |
| O=C(CCc1ccc(C(F)(F)F)cc1)N1CCC(N2CCN(C(=O)c3cccc(-c4ncc[nH]4)c3)CC2)CC1 [Compound 60, 1-(4-{4-[3-(1H-Imidazol-2-yl)-benzoyl]-piperazin-1-yl}-piperidin-1-yl)-3-(4-trifluoromethyl-phenyl)-propan-1-one] | < 30 µM |
| O=C(CCc1ccc(Cl)cc1F)N1CCC(N2CCN(C(=O)c3ccc4[nH]nnc4c3)CC2)CC1 [Compound 61, 1-{4-[4-(1H-Benzotriazole-5-carbonyl)-piperazin-1-yl]-piperidin-1-yl}-3-(4-chloro-2-fluoro-phenyl)-propan-1-one] | < 10 µM |
| O=C(OCc1ccc(Cl)cc1F)N1CCC(NC2CCN(C(=O)c3ccc4[nH]nnc4c3)CC2)C1 (stereo not shown) [Compound 63, 3-[1-(1H-Benzotriazole-5-carbonyl)-piperidin-4-ylamino]-pyrrolidine-1-carboxylic acid 4-chloro-2-fluoro-benzyl ester] | < 10 µM |
| O=C(CCc1ccc(Cl)cc1F)N1CCN(C2CCN(C(=O)c3ccc4[nH]c(=O)oc4c3)CC2)CC1 [Compound 64, 6-(4-{4-[3-(4-Chloro-2-fluoro-phenyl)-propionyl]-piperazin-1-yl}-piperidine-1-carbonyl)-3H-benzooxazol-2-one] | < 10 µM |
| O=C(CCc1ccc(Cl)cc1F)N1CCC(NC2CCN(C(=O)c3ccc4[nH]nnc4c3)CC2)C1 (stereo not shown) [Compound 66, 1-{3-[1-(1H-Benzotriazole-5-carbonyl)-piperidin-4-ylamino]-pyrrolidin-1-yl}-3-(4-chloro-2-fluoro-phenyl)-propan-1-one] | < 10 µM |
| O=C(CCc1ccc(Cl)cc1F)N1CCN(C2CCN(C(=O)c3ccc4[nH]nnc4c3)CC2)CC1 [Compound 67, 1-{4-[1-(1H-Benzotriazole-5-carbonyl)-piperidin-4-yl]-piperazin-1-yl}-3-(4-chloro-2-fluoro-phenyl)-propan-1-one] | < 10 µM |
| O=C(OCc1ccc(C(F)(F)F)cc1)N1CCC(NC2CCN(C(=O)c3ccc4[nH]nnc4c3)CC2)C1 (stereo not shown) [Compound 68, 3-[1-(1H-Benzotriazole-5-carbonyl)-piperidin-4-ylamino]-pyrrolidine-1-carboxylic acid 4-trifluoromethyl-benzyl ester] | < 10 µM |
| O=C(CCc1cc(Cl)cc(Cl)c1)N1CCN(C2CCN(C(=O)c3ccc4[nH]nnc4c3)CC2)CC1 [Compound 69, 1-{4-[1-(1H-Benzotriazole-5-carbonyl)-piperidin-4-yl]-piperazin-1-yl}-3-(3,5-dichloro-phenyl)-propan-1-one] | < 10 µM |
| O=C(OCc1ccc(C(F)(F)F)cc1)N1CCC(NC2CCN(C(=O)c3ccc4[nH]nnc4c3)C2)CC1 (stereo not shown) [Compound 70, 4-[1-(1H-Benzotriazole-5-carbonyl)-pyrrolidin-3-ylamino]-piperidine-1-carboxylic acid 4-trifluoromethyl-benzyl ester] | < 10 µM |
| O=C(Nc1ccc(Cl)c(C(F)(F)F)c1)C(=O)N1CCN(C2CCN(C(=O)c3ccc4[nH]nnc4c3)CC2)CC1 [Compound 72, 2-{4-[1-(1H-Benzotriazole-5-carbonyl)-piperidin-4-yl]-piperazin-1-yl}-N-(4-chloro-3-trifluoromethyl-phenyl)-2-oxo-acetamide] | < 10 µM |
| O=C(OCc1cc(C(F)(F)F)ccc1F)N1CCC(N2CCN(C(=O)c3ccc4[nH]nnc4c3)CC2)CC1 [Compound 74, 4-[4-(1H-Benzotriazole-5-carbonyl)-piperazin-1-yl]-piperidine-1-carboxylic acid 2-fluoro-5-trifluoromethyl-benzyl ester] | < 10 µM |

More lines, now with the values ahead:

| IC50 | Compound |
| --- | --- |
| < 10 µM | CC1=NN(c2ccc(NC(=O)C3CC(=O)N(C4CCN(C(=O)OCc5cc(Cl)cc(Cl)c5)CC4)C3)cc2)C(=O)C1 (stereo not shown) [Compound 56, 4-{4-[4-(3-Methyl-5-oxo-4,5-dihydro-pyrazol-1-yl)-phenylcarbamoyl]-2-oxo-pyrrolidin-1-yl}-piperidine-1-carboxylic acid 3,5-dichloro-benzyl ester] |
| < 10 µM | O=C(Nc1ccc(-c2csnn2)cc1)C1CC(=O)N(C2CCN(C(=O)OCc3cc(Cl)cc(Cl)c3)CC2)C1 (stereo not shown) [Compound 57, 4-[2-Oxo-4-(4-[1,2,3]thiadiazol-4-yl-phenylcarbamoyl)-pyrrolidin-1-yl]-piperidine-1-carboxylic acid 3,5-dichloro-benzyl ester] |
| < 10 µM | O=C(/C=C/c1c[nH]cn1)N1CCN(C2CCN(C(=O)CCc3ccc(C(F)(F)F)cc3)CC2)CC1 [Compound 58, (E)-3-(3H-Imidazol-4-yl)-1-(4-{1-[3-(4-trifluoromethyl-phenyl)-propionyl]-piperidin-4-yl}-piperazin-1-yl)-propenone] |
| < 1 µM | O=C(OCc1ccc(Cl)cc1F)N1CCC(N2CCN(C(=O)c3ccc4[nH]nnc4c3)CC2)CC1 [Compound 62, 4-[4-(1H-Benzotriazole-5-carbonyl)-piperazin-1-yl]-piperidine-1-carboxylic acid 4-chloro-2-fluoro-benzyl ester] |
| < 1 µM | O=C(OCc1ccc(Cl)cc1F)N1CCN(C2CCN(C(=O)c3ccc4[nH]c(=O)oc4c3)CC2)CC1 [Compound 65, 4-[1-(2-Oxo-2,3-dihydro-benzooxazole-6-carbonyl)-piperidin-4-yl]-piperazine-1-carboxylic acid 4-chloro-2-fluoro-benzyl ester] |
| < 1 µM | O=C(OCc1ccc(C(F)(F)F)cc1)N1CCC(N2CCN(C(=O)c3ccc4[nH]nnc4c3)CC2)CC1 [Compound 71, 4-[4-(1H-Benzotriazole-5 carbonyl)-piperazin-1-yl]-piperidine-1-carboxylic acid 4-trifluoromethyl-benzyl ester] |
| < 1 µM | O=C(OCc1ccc(C(F)(F)F)cc1F)N1CCC(N2CCN(C(=O)c3ccc4[nH]nnc4c3)CC2)CC1 [Compound 73, 4-[4-(1H-Benzotriazole-5-carbonyl)-piperazin-1-yl]-piperidine-1-carboxylic acid 2-fluoro-4-trifluoromethyl-benzyl ester] |
| < 1 µM | O=C(OCc1cc(F)cc(C(F)(F)F)c1)N1CCC(N2CCN(C(=O)c3ccc4[nH]nnc4c3)CC2)CC1 [Compound 75, 4-[4-(1H-Benzotriazole-5-carbonyl)-piperazin-1-yl]-piperidine-1-carboxylic acid 3-fluoro-5-trifluoromethyl-benzyl ester] |
| < 1 µM | O=C(OCc1ccc(OC(F)(F)F)cc1)N1CCC(N2CCN(C(=O)c3ccc4[nH]nnc4c3)CC2)CC1 [Compound 76, 4-[4-(1H-Benzotriazole-5-carbonyl)-piperazin-1-yl]-piperidine-1-carboxylic acid 4-trifluoromethoxy-benzyl ester] |
| < 1 µM | O=C(OCc1cc(Cl)cc(C(F)(F)F)c1)N1CCC(N2CCN(C(=O)c3ccc4[nH]nnc4c3)CC2)CC1 [Compound 77, 4-[4-(1H-Benzotriazole-5-carbonyl)-piperazin-1-yl]-piperidine-1-carboxylic acid 3-chloro-5-trifluoromethyl-benzyl ester] |
| < 1 µM | O=C(OCc1ccc(F)c(Cl)c1)N1CCC(N2CCN(C(=O)c3ccc4[nH]nnc4c3)CC2)CC1 [Compound 78, 4-[4-(1H-Benzotriazole-5-carbonyl)-piperazin-1-yl]-piperidine-1-carboxylic acid 3-chloro-4-fluoro-benzyl ester] |
| < 1 µM | O=C(OCc1cc(F)c(F)c(F)c1)N1CCC(N2CCN(C(=O)c3ccc4[nH]nnc4c3)CC2)CC1 [Compound 79, 4-[4-(1H-Benzotriazole-5-carbonyl)-piperazin-1-yl]-piperidine-1-carboxylic acid 3,4,5-trifluoro-benzyl ester] |
| < 1 µM | O=C(OCc1ccc(Br)cc1)N1CCC(N2CCN(C(=O)c3ccc4[nH]nnc4c3)CC2)CC1 [Compound 80, 4-[4-(1H-Benzotriazole-5-carbonyl)-piperazin-1-yl]-piperidine-1-carboxylic acid 4-bromo-benzyl ester] |
